This is an account of results in PubChem BioAssay AID1259407 (Chemical Carcinogenesis Research Information System (CCRIS), 2018).

The source made the active and inactive calls. How the calls were made is not given here.

For this data set, the system named is CCRIS mutagenicity, Ames/micronucleus/aberration tests. Description: CCRIS mutagenicity studies.
Setting [1] is: Test System: AMES SALMONELLA TYPHIMURIUM, Strain/Indicator: TA98, Metabolic Activation: NONE, Method: STANDARD PLATE.
[2] abbreviates: Test System: AMES SALMONELLA TYPHIMURIUM, Strain/Indicator: TA98, Metabolic Activation: RAT, LIVER, S-9, AROCLOR 1254, Method: STANDARD PLATE.
[3] abbreviates: Test System: AMES SALMONELLA TYPHIMURIUM, Strain/Indicator: TA100, Metabolic Activation: NONE, Method: STANDARD PLATE.
The mark [4] stands for this setting: Test System: AMES SALMONELLA TYPHIMURIUM, Strain/Indicator: TA100, Metabolic Activation: RAT, LIVER, S-9, AROCLOR 1254, Method: STANDARD PLATE.
[5] abbreviates: Test System: AMES SALMONELLA TYPHIMURIUM, Strain/Indicator: TA1535, Metabolic Activation: NONE, Method: STANDARD PLATE.
The mark [6] stands for this setting: Test System: AMES SALMONELLA TYPHIMURIUM, Strain/Indicator: TA1535, Metabolic Activation: RAT, LIVER, S-9, AROCLOR 1254, Method: STANDARD PLATE.
Where [7] appears, read: Test System: AMES SALMONELLA TYPHIMURIUM, Strain/Indicator: TA1537, Metabolic Activation: NONE, Method: STANDARD PLATE.
Setting [8] is: Test System: AMES SALMONELLA TYPHIMURIUM, Strain/Indicator: TA1537, Metabolic Activation: RAT, LIVER, S-9, AROCLOR 1254, Method: STANDARD PLATE.
Where [9] appears, read: Test System: AMES SALMONELLA TYPHIMURIUM, Strain/Indicator: TA1538, Metabolic Activation: NONE, Method: STANDARD PLATE.
[10] abbreviates: Test System: AMES SALMONELLA TYPHIMURIUM, Strain/Indicator: TA102, Metabolic Activation: NONE, Method: STANDARD PLATE.

Turning to `O=C(O)CCc1ccccc1`, the mutagenic call (Test System: AMES SALMONELLA TYPHIMURIUM, Strain/Indicator: TA98, Metabolic Activation: HAMSTER, LIVER, S-9, AROCLOR 1254, Method: STANDARD PLATE) was “inactive; negative”; the mutagenic call under setting [1] is “inactive; negative”; the mutagenic call under setting [2] was “inactive; negative”; the mutagenic call (Test System: AMES SALMONELLA TYPHIMURIUM, Strain/Indicator: TA100, Metabolic Activation: HAMSTER, LIVER, S-9, AROCLOR 1254, Method: STANDARD PLATE) was “inactive; negative”; the mutagenic call under setting [3] was “inactive; negative”; the mutagenic call under setting [4] was “inactive; negative”. The mutagenic call is, setting by setting: (Test System: AMES SALMONELLA TYPHIMURIUM, Strain/Indicator: TA1535, Metabolic Activation: HAMSTER, LIVER, S-9, AROCLOR 1254, Method: STANDARD PLATE) “inactive; negative”; under setting [5], “inactive; negative”; under setting [6], “inactive; negative”; (Test System: AMES SALMONELLA TYPHIMURIUM, Strain/Indicator: TA1537, Metabolic Activation: HAMSTER, LIVER, S-9, AROCLOR 1254, Method: STANDARD PLATE) “inactive; negative”; under setting [7], “inactive; negative”; under setting [8], “inactive; negative”. The mutagenic call was “inactive; negative” (Test System: AMES SALMONELLA TYPHIMURIUM, Strain/Indicator: TA1538, Metabolic Activation: HAMSTER, LIVER, S-9, AROCLOR 1254, Method: STANDARD PLATE); “inactive; negative” under setting [9]; “inactive; negative” (Test System: AMES SALMONELLA TYPHIMURIUM, Strain/Indicator: TA1538, Metabolic Activation: RAT, LIVER, S-9, AROCLOR 1254, Method: STANDARD PLATE); “inactive; negative. reevaluation of results: negative” (Test System: MOUSE LYMPHOMA, Strain/Indicator: L5178Y (TK+/TK-), Metabolic Activation: NONE, Method: SUSPENSION/PLATE); “inactive; negative. reevaluation of results: negative” (Test System: MOUSE LYMPHOMA, Strain/Indicator: L5178Y (TK+/TK-), Metabolic Activation: RAT, LIVER, S-9, AROCLOR 1254, Method: SUSPENSION/PLATE).

Regarding `CC(=O)OCc1c(O)cc2c(c1O)C(=O)c1ccccc1C2=O`, the mutagenic call is “active; positive” (Test System: AMES SALMONELLA TYPHIMURIUM, Strain/Indicator: TA98, Metabolic Activation: NONE, Method: PREINCUBATION); “active; positive” (Test System: AMES SALMONELLA TYPHIMURIUM, Strain/Indicator: TA98, Metabolic Activation: RAT, LIVER, S-9, PCB, Method: PREINCUBATION); “active; positive” (Test System: AMES SALMONELLA TYPHIMURIUM, Strain/Indicator: TA100, Metabolic Activation: NONE, Method: PREINCUBATION); “active; positive” (Test System: AMES SALMONELLA TYPHIMURIUM, Strain/Indicator: TA100, Metabolic Activation: RAT, LIVER, S-9, PCB, Method: PREINCUBATION).

As for `Cc1cnc2c(n1)c(C)c(C)c1c2nc(N)n1C`, the mutagenic call under setting [2] is “active; positive”.

Take `CS(=O)(=O)N1C2c3ccccc3-c3ccccc3C21` (stereo unspecified): the mutagenic call is “active; positive” under setting [3] and “inactive; negative” (Test System: CHINESE HAMSTER V-79, Strain/Indicator: V-79/6-THIOGUANINE, Metabolic Activation: NONE, Method: STANDARD PLATE).

Turning to `O=[C]/C=C\C(=O)CC(=O)CC(=O)O`, under “Test System: CHINESE HAMSTER V-79, Strain/Indicator: V-79 (HGPRT)/6-THIOGUANINE, Metabolic Activation: NONE”, the mutagenic call was “inactive; negative”.

On to `CN(N)c1ccn([C@@H]2O[C@H](CO)[C@@H](O)[C@H]2O)c(=O)n1`, for which the mutagenic call (Test System: CHINESE HAMSTER V-79, Strain/Indicator: V-79/6-THIOGUANINE, Metabolic Activation: NONE, Method: REPLATING) is “inactive; negative”.

In the case of `O=C1CN=C(c2ccccc2)c2cc([N+](=O)[O-])ccc2N1`, the mutagenic call by setting is: under setting [1], “inactive; negative”; under setting [2], “inactive; negative”; under setting [3], “inactive; negative”; under setting [4], “inactive; negative”; under setting [10], “inactive; negative”; (Test System: AMES SALMONELLA TYPHIMURIUM, Strain/Indicator: TA102, Metabolic Activation: RAT, LIVER, S-9, AROCLOR 1254, Method: STANDARD PLATE) “inactive; negative”. Besides, the mutagenic call under setting [5] was “inactive; negative”; the mutagenic call under setting [6] is “inactive; negative”; the mutagenic call under setting [7] is “inactive; negative”; the mutagenic call under setting [8] was “inactive; negative”; the mutagenic call (Test System: E. COLI, Strain/Indicator: WP2 UVRA, Metabolic Activation: NONE, Method: STANDARD PLATE) was “inactive; negative”; the mutagenic call (Test System: E. COLI, Strain/Indicator: WP2 UVRA, Metabolic Activation: RAT, LIVER, S-9, AROCLOR 1254, Method: STANDARD PLATE) was “inactive; negative”.

On to `CNC(=O)Oc1ccc2c(c1)[C@]1(C)CCN(C)[C@@H]1N2C`, for which the mutagenic call (Test System: AMES SALMONELLA TYPHIMURIUM, Strain/Indicator: TA97, Metabolic Activation: LIVER, S-9 (10%), Method: STANDARD PLATE) was “inactive; negative”; the mutagenic call (Test System: AMES SALMONELLA TYPHIMURIUM, Strain/Indicator: TA97, Metabolic Activation: NONE, Method: STANDARD PLATE) is “inactive; negative”; the mutagenic call (Test System: AMES SALMONELLA TYPHIMURIUM, Strain/Indicator: TA97, Metabolic Activation: S-9, Method: STANDARD PLATE) is “inactive; negative”; the mutagenic call (Test System: AMES SALMONELLA TYPHIMURIUM, Strain/Indicator: TA98, Metabolic Activation: LIVER, S-9 (10%), Method: STANDARD PLATE) is “inactive; negative”; the mutagenic call under setting [1] is “inactive; negative”; the mutagenic call (Test System: AMES SALMONELLA TYPHIMURIUM, Strain/Indicator: TA98, Metabolic Activation: S-9, Method: STANDARD PLATE) is “inactive; negative”. Also, the mutagenic call (Test System: AMES SALMONELLA TYPHIMURIUM, Strain/Indicator: TA100, Metabolic Activation: LIVER, S-9 (10%), Method: STANDARD PLATE) was “inactive; negative”; the mutagenic call under setting [3] was “inactive; negative”; the mutagenic call (Test System: AMES SALMONELLA TYPHIMURIUM, Strain/Indicator: TA100, Metabolic Activation: S-9, Method: STANDARD PLATE) was “inactive; negative”; the mutagenic call under setting [10] is “inactive; negative”; the mutagenic call (Test System: AMES SALMONELLA TYPHIMURIUM, Strain/Indicator: TA102, Metabolic Activation: S-9, Method: STANDARD PLATE) was “inactive; negative”; the mutagenic call (Test System: AMES SALMONELLA TYPHIMURIUM, Strain/Indicator: TA104, Metabolic Activation: LIVER, S-9 (10%), Method: STANDARD PLATE) was “inactive; negative”. Besides, the mutagenic call runs as follows: (Test System: AMES SALMONELLA TYPHIMURIUM, Strain/Indicator: TA104, Metabolic Activation: NONE, Method: STANDARD PLATE) “inactive; negative”; (Test System: AMES SALMONELLA TYPHIMURIUM, Strain/Indicator: TA104, Metabolic Activation: S-9, Method: STANDARD PLATE) “inactive; negative”; (Test System: AMES SALMONELLA TYPHIMURIUM, Strain/Indicator: TA1535, Metabolic Activation: LIVER, S-9 (10%), Method: STANDARD PLATE) “inactive; negative”; under setting [5], “inactive; negative”; (Test System: AMES SALMONELLA TYPHIMURIUM, Strain/Indicator: TA1535, Metabolic Activation: S-9, Method: STANDARD PLATE) “inactive; negative”; (Test System: AMES SALMONELLA TYPHIMURIUM, Strain/Indicator: TA1537, Metabolic Activation: LIVER, S-9 (10%), Method: STANDARD PLATE) “inactive; negative”. For the same compound, the mutagenic call reads like this: under setting [7], “inactive; negative”; (Test System: AMES SALMONELLA TYPHIMURIUM, Strain/Indicator: TA1537, Metabolic Activation: S-9, Method: STANDARD PLATE) “inactive; negative”; (Test System: AMES SALMONELLA TYPHIMURIUM, Strain/Indicator: TA1538, Metabolic Activation: LIVER, S-9 (10%), Method: STANDARD PLATE) “inactive; negative”; under setting [9], “inactive; negative”; (Test System: AMES SALMONELLA TYPHIMURIUM, Strain/Indicator: TA1538, Metabolic Activation: S-9, Method: STANDARD PLATE) “inactive; negative”.
